# Measured values from patent US10508992B2, “Method and probe for monitoring oxygen status in live mammalian cells” (University College Cork, National University of Ir Cork, priority 2010, dated 2019).
# Test system: MEF cells
# Conditions: MEF cells loaded with probe 10 ug/ml, 12 h; different concentrations, added at 30 min, FIG. 6
# Description: The plate was then measured on a Victor 2 reader as described in Example 4. Initially it was monitored for ˜30 min to reach O2 and temperature equilibrium and obtain basal signals, then quickly withdrawn from the reader, compounds were added to the cells (10 ul of 10× stock solution in each well) and monitoring was resumed. Measured TR-F intensity signals for each sample well were converted into phosphorescence lifetime (t) values and plotted. Control samples and repetitive additions were incorporated as appropriate.
smiles,measurement,value
N#CC(C#N)=NNc1ccc(OC(F)(F)F)cc1 [FCCP],response of probe phosphorescence lifetime to stimulation,Increases in probe lifetime
